# Laboratory results: publication PMC10866013 (Nature, 2023)
# Tested on: MRSA USA300
# Type: cell-based, Staphylococcus aureus
# Conditions: vs S. aureus RN4220
structure (smiles),measurement,value
CC1(C)S[C@@H]2[C@H](NC(=O)[C@H](N)c3ccccc3)C(=O)N2[C@H]1C(=O)O [ampicillin],MIC increase in MRSA USA300 relative to the methicillin-susceptible strain,at least 16 fold
